The values that follow come from patent US20240124467A1, “FUSED PYRIMIDINE COMPOUNDS AS INHIBITORS OF MENIN-MLL INTERACTION” (Biomea Fusion, Inc., priority 2020, published 2024).

Like-named read-outs stand apart in the source and are kept apart here.

Common to all, as to assay type: cell-based
For one experiment, the system named is K-562. Nature of the experiment: Cell proliferation inhibition (CellTiter-Glo), K-562 cells. The following applies: Homo sapiens, K-562 (BCR-ABL). In a few lines:
(§1)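 Leukemia lines in RPMI-1640/10% FBS at 37° C. were exposed in duplicate to seven compound concentrations (5.00×10^−6 to 6.86×10^−9 M), with 0.2% DMSO as 100% proliferation. At day 4 cells were diluted 1:4 in fresh medium containing compound. Viability was read by CellTiter-Glo luminescence at day 4 and day 7.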

In another experiment the test system is OCI-AML3. Kind of experiment: Cell proliferation inhibition (CellTiter-Glo), OCI-AML3 cells. Conditions: Homo sapiens. The protocol:
(§2) The present example evaluates the ability of compounds described herein, inhibitors of Menin/MLL interaction, to inhibit cell proliferation. The proliferation inhibitory effect was investigated in human MLL-leukemia cells selected on the bases of MLL fusion proteins and listed in the table below.
(§3) ATP is present in all metabolically active cells and is considered as a marker for cell viability and proliferation. The metabolic cell activity was determined using the CellTiter-Glo kit from Promega, an ATP monitoring system based on the production of luminescence by the reaction of ATP with added UltraGlo® recombinant luciferase (Kawano et al., 2016, PLOS One, 8:11(7):e0158888), according to the supplier's experimental recommendations. The assay is based on a 96 well plate format. All experiments were carried out in duplicate in one test occasion.
(§4) Test items were dissolved at 20 mM in DMSO with purity ≥99.9% (Sigma catalog no. D8418) and stored at −20° C. Cells were maintained in RPMI-1640 medium (Invitrogen catalog no. 618700) supplemented with 10% of Heat Inactivated FBS (Invitrogen catalog no. 10500) and 1% Pen-Strep (Invitrogen catalog no. 15140) and cultured at 37° C. in a humidified incubator with 5% CO2. Cell lines were grown in suspension and the cell density was maintained in a range of 5×10^4-1×10^6 viable cells/ml where possible. Cells were pelleted at 130 g×5 min.
(§5) Serial dilutions of compounds 1 to 3 in DMSO 100% were prepared starting from a 2.5 mM solutions (prepared by diluting 1:8 the 20 mM stock solution) to generate a 7 point concentration response curve (CRC). Seven concentrations of test compounds (e.g., 5.00×10^−6-1.67×10^−6-5.56×10^−7-1.85×10^−7-6.17×10^−8-2.06×10^−8-6.86×10^−9 M) were assessed in duplicate in an individual test occasion in parallel in the selected cell lines. KO-539 was used as a reference compound and tested in duplicate at seven similar concentrations. 100% of proliferation was represented by the untreated cells (0.2% DMSO).
(§6) Cell proliferation inhibition was monitored at both the following end points: Day 4 (T4) and Day 7 (T7). For the appropriate cell density during the exponential cell growth and re-supply with fresh compound solution at T4, cells were diluted (1:4) with fresh medium containing the compound concentration (1×).
(§7) For each plate to test, one 0.4 μL copy plate and four 0.3 μL copy plates were stamped into 96-well plates not treated for cell adhesion (Sarstedt—cat. no. 82.1581.001) by acoustic liquid handling (Echo) at a concentration which was 500 fold the final assay concentration. Stamped plates were stored at −20° C.
(§8) On Day 0, the day of the experiment cell line suspensions were counted by Cell Viability Analyser, Vi-CELL (Beckman Coulter AY15292), and diluted with fresh medium to obtain the following cell densities: K-562 500 c/ml, MOLM-13 1,000 c/ml, MV4-11 10,000 c/ml, OCI-AML-3 500 c/ml, and U-937 500-1,000 c/ml. 200 μL/well and 150 μL/well of cell suspension were added into the 0.4 μL/well and 0.3 μL/well compound plates, respectively. Cell plate containing 200 μL/well suspension were incubated at 37° C. in a humidified incubator with 5% CO2. From each well of the 150 μL/well cell assay plate, 100 μL were harvested and transferred into a 96-well Optiplate (Perkin Elmer, cat. no. 6005290). Cell viability was measured as described below.
(§9) On Day 4, 150p/well of fresh medium was added into a new 0.3 μL/well copy compound plates. From each well of the 200 μL/well cell assay plate, 100 μL was sampled for the cell viability measurement as described below. 50p was harvested and added to the 150p/well compound plate prepared as described in the first point to dilute 1:4 the cell suspension. The cell assay plate diluted and containing 200 μL/well suspension was incubated at 37° C. in a humidified incubator with 5% CO2.
(§10) On Day 4, 150p/well of fresh medium was added into a new 0.3 μL/well copy compound plates. […]

A further experiment has as its system MV4-11. Kind of experiment: Cell proliferation inhibition (CellTiter-Glo), MV4-11 cells. Conditions: Homo sapiens, MV4-11 (MLL-AF4). In a few lines: as §1
The next experiment deals with MOLM-13. Kind of experiment: Cell proliferation inhibition (CellTiter-Glo), MOLM-13 cells. Conditions: Homo sapiens, MOLM-13 (MLL-AF9). In a few lines: as §1
The test system of another experiment is U-937. Nature of the experiment: Cell proliferation inhibition (CellTiter-Glo), U-937 cells. The following applies: Homo sapiens, U-937 (MLL-wt), Table 3. On the procedure: as §2, §3, §4, §5, §6, §7, §8, §9, §10
The mark [1] stands for this setting: K562, 96 h, 4 d, Table 3, read-out: K-562 IC50 μM 4 d.
Setting [2] is: K562, 168 h, 7 d, Table 3, read-out: K-562 IC50 μM 7 d.
Where [3] appears, read: OCI-AML-3, 96 h, 4 d, Table 3, read-out: OCI-AML3 IC50 μM 4 d.
Setting [4] is: OCI-AML-3, 168 h, 7 d, Table 3, read-out: OCI-AML3 IC50 μM 7 d.
[5] abbreviates: 96 h, 4 d, Table 3, read-out: MV4-11 IC50 μM 4 d.
The mark [6] stands for this setting: 168 h, 7 d, Table 3, read-out: MV4-11 IC50 μM 7 d.
Where [7] appears, read: 96 h, 4 d, Table 3, read-out: MOLM13 μM 4 d.
The mark [8] stands for this setting: 168 h, 7 d, Table 3, read-out: MOLM13 μM 7 d.
Setting [9] is: 96 h, 4 d, read-out: U-937 IC50 μM 4 d.
Setting [10] is: 168 h, 7 d, read-out: U-937 IC50 μM 7 d.
[11] abbreviates: K562, 96 h, Day 4, read-out: K-562 IC50 μM (Day 4).
Setting [12] is: K562, 168 h, Day 7, read-out: K-562 IC50 μM (Day 7)*.
[13] abbreviates: 96 h, Day 4, read-out: MV-4:11 IC50 μM (Day 4)*.
Where [14] appears, read: 168 h, Day 7, read-out: MV-4:11 IC50 μM (Day 7)*.
[15] abbreviates: 96 h, Day 4, read-out: MOLM-13 Day IC50 μM (Day 4)*.
Setting [16] is: 168 h, Day 7, read-out: MOLM-13 Day IC50 μM (Day 7)*.

On to `C=CC(=O)N(C)[C@@H]1CCCN(Cc2ccnc(C(=O)Nc3ccc(-c4cc5c(N6CCOCC6)ncnc5[nH]4)cc3)c2)C1` [Compound B0700-301, (R)-4-((3-(N-methylacrylamido)piperidin-1-yl)methyl)-N-(4-(4-morpholino-7H-pyrrolo[2,3-d]pyrimidin-6-yl)phenyl)picolinamide], for which the IC50 with K-562 (setting [1]) turned out to be 0.263 µM; in the experiment on K-562 (setting [2]), 0.191 µM; with OCI-AML3 (setting [3]), 0.066 µM; in the experiment on OCI-AML3 (setting [4]), 0.028 µM; with MV4-11 (setting [5]), 0.085 µM; with MV4-11 (setting [6]), 0.069 µM. Moreover, the IC50 with MOLM-13 (setting [7]) worked out at 0.056 µM; in the experiment with MOLM-13 (setting [8]), 0.044 µM; in the experiment on U-937 (setting [9]) it was 0.105 µM; with U-937 (setting [10]), 0.026 µM.

In the case of `C=CC(=O)N1CCCC(Nc2ccnc(C(=O)Nc3ccc(-c4cc5c(N6CCOCC6)ncnc5[nH]4)cc3)c2)C1` (stereo not drawn) [Compound B0700-302, 4-((1-acryloylpiperidin-3-yl)amino)-N-(4-(4-morpholino-7H-pyrrolo[2,3-d]pyrimidin-6-yl)phenyl)picolinamide], the IC50 worked out at 0.17 µM in the experiment with K-562 (setting [1]); 0.138 µM in the experiment with K-562 (setting [2]); 0.043 µM with OCI-AML3 (setting [3]); 0.044 µM in the experiment with OCI-AML3 (setting [4]); 0.098 µM in the experiment on MV4-11 (setting [5]); 0.089 µM in the experiment on MV4-11 (setting [6]). Further, the IC50 in the experiment with MOLM-13 (setting [7]) is 0.063 µM; in the experiment on MOLM-13 (setting [8]), 0.05 µM; in the experiment on U-937 (setting [9]), 0.072 µM; in the experiment with U-937 (setting [10]), 0.037 µM.

Take `C=CC(=O)N1CCN(CCc2ccnc(C(=O)Nc3ccc(-c4cc5c(N6CCOCC6)ncnc5[nH]4)cc3)c2)CC1` [Compound B0700-303, 4-(2-(4-acryloylpiperazin-1-yl)ethyl)-N-(4-(4-morpholino-7H-pyrrolo[2,3-d]pyrimidin-6-yl)phenyl)picolinamide]: the IC50 in the experiment on K-562 (setting [1]) came to 0.085 µM; in the experiment with K-562 (setting [2]) it was 0.028 µM; in the experiment on OCI-AML3 (setting [3]), 0.076 µM; in the experiment on OCI-AML3 (setting [4]), 0.05 µM; in the experiment with MV4-11 (setting [5]), 0.051 µM; in the experiment on MV4-11 (setting [6]), 0.05 µM. For the same compound, the IC50 worked out at 0.049 µM in the experiment on MOLM-13 (setting [7]), 0.034 µM in the experiment with MOLM-13 (setting [8]), 0.043 µM in the experiment with U-937 (setting [9]) and 0.022 µM in the experiment on U-937 (setting [10]).

Regarding `C=CC(=O)N[C@@H]1CCCN(Cc2ccnc(C(=O)NC3CCN(c4nc5c(N6CCOCC6)ncnc5[nH]4)CC3)c2)C1` [Compound B0700-308, (R)-4-((3-acrylamidopiperidin-1-yl)methyl)-N-(1-(6-morpholino-9H-purin-8-yl)piperidin-4-yl)picolinamide], the IC50 in the experiment on K-562 (setting [1]), with K-562 (setting [2]), in the experiment with OCI-AML3 (setting [3]), in the experiment with OCI-AML3 (setting [4]), with MV4-11 (setting [5]) and in the experiment with MV4-11 (setting [6]) was > 5 µM throughout. Moreover, the IC50 in the experiment with MOLM-13 (setting [7]), in the experiment on MOLM-13 (setting [8]), with U-937 (setting [9]) and in the experiment with U-937 (setting [10]) was > 5 µM throughout.

Take `O=C(/C=C/CN1CC(F)C1)Nc1ccc(CC(=O)Nc2ccc(-c3cc4c(N5CCOCC5)ncnc4[nH]3)cc2)cc1` [Compound B0700-312, (E)-4-(3-fluoroazetidin-1-yl)-N-(4-(2-((4-(4-morpholino-7H-pyrrolo[2,3-d]pyrimidin-6-yl)phenyl)amino)-2-oxoethyl)phenyl)but-2-enamide]: the IC50 with K-562 (setting [1]) is > 5 µM; in the experiment with K-562 (setting [2]) it was > 5 µM; in the experiment on OCI-AML3 (setting [3]), > 5 µM; with OCI-AML3 (setting [4]) it was 1.95 µM; with MV4-11 (setting [5]), 1.62 µM; in the experiment on MV4-11 (setting [6]) it was 1 µM. For the same compound, the IC50 with MOLM-13 (setting [7]) was 2.34 µM; in the experiment on MOLM-13 (setting [8]), 0.537 µM; in the experiment with U-937 (setting [9]) it was > 5 µM; with U-937 (setting [10]) it was > 5 µM.

Turning to `C=CC(=O)Nc1ccc(CC(=O)Nc2ccc(-c3cc4c(C)ncnc4[nH]3)cc2)cc1` [Compound B0700-313, N-(4-(2-((4-(4-methyl-7H-pyrrolo[2,3-d]pyrimidin-6-yl)phenyl)amino)-2-oxoethyl)phenyl)acrylamide], the IC50 in the experiment on K-562 (setting [1]) was > 5 µM; in the experiment on K-562 (setting [2]) it was 0.288 µM; with OCI-AML3 (setting [3]), > 5 µM; in the experiment with OCI-AML3 (setting [4]) it was 0.407 µM; with MV4-11 (setting [5]), > 5 µM; in the experiment on MV4-11 (setting [6]), > 5 µM. The IC50 is > 5 µM in the experiment on MOLM-13 (setting [7]), 3.31 µM with MOLM-13 (setting [8]), > 5 µM with U-937 (setting [9]) and 1.26 µM in the experiment with U-937 (setting [10]).

In the case of `C=CC(=O)N[C@H]1CCN(c2cccc(C(C)(C)C(=O)Nc3ccc(-c4cc5c(N6CCOCC6)ncnc5[nH]4)cc3)c2)C1` [Compound B0700-617, (S)—N-(1-(3-(2-methyl-1-((4-(4-morpholino-7H-pyrrolo[2,3-d]pyrimidin-6-yl)phenyl)amino)-1-oxopropan-2-yl)phenyl)pyrrolidin-3-yl)acrylamide], the IC50 in the experiment with K-562 (setting [11]) was 4.55 µM; with K-562 (setting [12]), 4.86 µM; in the experiment with MV4-11 (setting [13]), 0.477 µM; with MV4-11 (setting [14]), 0.41 µM; in the experiment on MOLM-13 (setting [15]) it was 0.447 µM; with MOLM-13 (setting [16]) it was 0.51 µM.

`C=CC(=O)N[C@H]1CCN(c2cccc(CC(=O)Nc3ccc(-c4cc5c(N6CCOCC6)ncnc5[nH]4)cc3)c2)C1` [Compound B0700-618, (S)—N-(1-(3-(2-((4-(4-morpholino-7H-pyrrolo[2,3-d]pyrimidin-6-yl)phenyl)amino)-2-oxoethyl)phenyl)pyrrolidin-3-yl)acrylamide]: the IC50 is 8.83 µM in the experiment on K-562 (setting [11]); 10.1 µM in the experiment on K-562 (setting [12]); 0.786 µM in the experiment on MV4-11 (setting [13]); 0.78 µM in the experiment with MV4-11 (setting [14]); 1.27 µM with MOLM-13 (setting [15]); 1.47 µM in the experiment on MOLM-13 (setting [16]).

Turning to `C=CC(=O)N[C@@H]1CCCN(Cc2ccnc(C(=O)Nc3ccc(-c4cc5c(C67CCOCC6C7)ncnc5[nH]4)cc3)c2)C1` (stereo partly drawn) [Compound B0700-706], the IC50 in the experiment on K-562 (setting [11]) was 1.48 µM; in the experiment with MV4-11 (setting [13]) it was 0.47 µM; with MOLM-13 (setting [15]) it was 0.54 µM.
